In US11542288B2, “Antiviral compounds” (priority 2020, dated 2023):
Read-outs that look alike come from different tables or passages of the source.

Columns and labels:
HIV-1 protease I84V = target: T1, HIV-1 protease I84V (Human immunodeficiency virus type 1 group M subtype B, UniProt P12497, I572V/Q495K); experiment: HIV enzyme inhibition assay (Ki), I84V variant; format: biochemical; details: drug-resistant protease variant I84V
T1 construct: onto NL4-3 wild-type protease on a pET11a plasmid; made in house

HIV-1 protease I50V/A71V = target: T2, HIV-1 protease I50V/A71V (Human immunodeficiency virus type 1 group M subtype B, UniProt P12497, A559V/I538V/Q495K); experiment: HIV enzyme inhibition assay (Ki), I50V/A71V variant; format: biochemical; details: drug-resistant protease variant I50V/A71V
T2 construct: onto NL4-3 wild-type protease on a pET11a plasmid; made in house

HIV-1 protease 8 Mutant = target: T3, HIV-1 protease 8 Mutant (Human immunodeficiency virus type 1 group M subtype B, UniProt P12497); experiment: HIV enzyme inhibition assay (Ki), 8 Mutant variant; format: biochemical; details: drug-resistant protease variant 8 Mutant
T3 construct: onto NL4-3 wild-type protease on a pET11a plasmid with codon optimization for protein expression in Escherichia coli; A Q7K mutation was included to prevent autoproteolysis

HIV-1 protease 10 Mutant = target: T4, HIV-1 protease 10 Mutant (Human immunodeficiency virus type 1 group M subtype B, UniProt P12497); experiment: HIV enzyme inhibition assay (Ki), 10 Mutant variant; format: biochemical; details: drug-resistant protease variant 10 Mutant
T4 construct: onto NL4-3 wild-type protease on a pET11a plasmid with codon optimization for protein expression in Escherichia coli; A Q7K mutation was included to prevent autoproteolysis

wild-type HIV-1 = experiment: HIV antiviral assay (293T / TZM-BL luciferase); format: cell-based; details: read-out: Antiviral WT EC50
HIV-1 protease 11 Mutant = target: T5, HIV-1 protease 11 Mutant (Human immunodeficiency virus type 1 group M subtype B, UniProt P12497); experiment: HIV enzyme inhibition assay (Ki), 11 Mutant variant; format: biochemical; details: drug-resistant protease variant 11 Mutant
T5 construct: onto NL4-3 wild-type protease on a pET11a plasmid with codon optimization for protein expression in Escherichia coli; A Q7K mutation was included to prevent autoproteolysis

HIV-1 protease KY24 = HIV-1 protease KY24 (Human immunodeficiency virus type 1, UniProt P12497); details: read-out: Ki KY24; drug-resistant protease variant KY24
HTLV-1 protease [1] = target: T6, HTLV-1 protease (Human T-cell leukemia virus type I, UniProt Q82134, L40I); details: read-out: Ki against HTLV-1 protease; 1 μM protein, MA/CA FRET substrate
HTLV-1 protease [2] = target: T6, HTLV-1 protease; experiment: biochemical

T6 sequence (Q82134 entry or part of it L40I): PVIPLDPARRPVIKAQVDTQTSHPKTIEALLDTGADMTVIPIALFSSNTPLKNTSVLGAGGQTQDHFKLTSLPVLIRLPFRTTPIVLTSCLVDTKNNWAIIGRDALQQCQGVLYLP

Row | Compound | Ki (HIV-1 protease I84V) | Ki (HIV-1 protease I50V/A71V) | Ki (HIV-1 protease 8 Mutant) | Ki (HIV-1 protease 10 Mutant) | EC50 (wild-type HIV-1) | Ki (HIV-1 protease 11 Mutant) | Ki (HIV-1 protease KY24) | Ki (HTLV-1 protease [1]) | Ki (HTLV-1 protease [2])
1 | CCOP(=O)(COc1ccc(C[C@H](NC(=O)O[C@H]2CO[C@H]3OCC[C@H]32)[C@H](O)CN(CC(CC)CC)S(=O)(=O)c2ccc3ncsc3c2)cc1)OCC [Example 12, (3R,3aS,6aR)-hexahydrofuro[2,3-b]furan-3-yl ((2S,3R)-1-(4-((diethoxyphosphoryl)methoxy)phenyl)-4-(N-(2-ethylbutyl)benzo[d]thiazole-6-sulfonamido)-3-hydroxybutan-2-yl)carbamate] | < 0.005 nM | < 0.005 nM | 0.25 ± 0.08 nM | 0.24 ± 0.09 nM | 10.7 nM | – | – | – | –
2 | CCOP(=O)(COc1ccc(C[C@H](NC(=O)O[C@H]2CO[C@H]3OCC[C@H]32)[C@H](O)CN(C[C@@H](C)CC)S(=O)(=O)c2ccc(OC)cc2)cc1)OCC [Example 3, (3R,3aS,6aR)-hexahydrofuro [2,3-b]furan-3-yl ((2S,3R)-1-(4-((diethoxyphosphoryl)methoxy)phenyl)-3-hydroxy-4-((4-methoxy-N—((S)-2-methylbutyl)phenyl)sulfonamido)butan-2-yl)carbamate] | < 0.005 nM | < 0.005 nM | 0.78 ± 0.07 nM | 3.7 ± 0.3 nM | 7.8 nM | 10.5 ± 0.9 nM | 0.16 ± 0.02 nM | – | –
3 | CCOP(=O)(COc1ccc(C[C@H](NC(=O)O[C@H]2CO[C@H]3OCC[C@H]32)[C@H](O)CN(CC(CC)CC)S(=O)(=O)c2ccc3c(c2)OCO3)cc1)OCC [Example 4, (3R,3aS,6aR)-hexahydrofuro[2,3-b]furan-3-yl ((2S,3R)-1-(4-((diethoxyphosphoryl)methoxy)phenyl)-4-(N-(2-ethylbutyl)benzo[d][1,3]dioxole-5-sulfonamido)-3-hydroxybutan-2-yl)carbamate] | < 0.005 nM | < 0.005 nM | 0.37 ± 0.03 nM | 1.6 ± 0.06 nM | 3.11 nM | 6.9 ± 0.5 nM | 0.08 ± 0.03 nM | – | –
4 | CCOP(=O)(COc1ccc(C[C@H](NC(=O)O[C@H]2CO[C@H]3OCC[C@H]32)[C@H](O)CN(C[C@@H](C)CC)S(=O)(=O)c2ccc(CO)cc2)cc1)OCC [Example 6, (3R,3aS,6aR)-hexahydrofuro[2,3-b]furan-3-yl ((2S,3R)-1-(4-((diethoxyphosphoryl)methoxy)phenyl)-3-hydroxy-4-((4-(hydroxymethyl)-N—((S)-2-methylbutyl)phenyl)sulfonamido)butan-2-yl)carbamate] | < 0.005 nM | < 0.005 nM | 4.98 ± 0.4 nM | 52.9 ± 4.2 nM | 27.3 nM | 103 ± 3 nM | 1.89 ± 0.17 nM | – | –
5 | CCOP(=O)(COc1ccc(C[C@H](NC(=O)O[C@H]2CO[C@H]3OCC[C@H]32)[C@H](O)CN(C[C@@H](C)CC)S(=O)(=O)c2ccc3ncsc3c2)cc1)OCC [Example 11, (3R,3aS,6aR)-hexahydrofuro[2,3-b]furan-3-yl ((2S,3R)-1-(4-((diethoxyphosphoryl)methoxy)phenyl)-3-hydroxy-4-(N—((S)-2-methylbutyl)benzo[d]thiazole-6-sulfonamido)butan-2-yl)carbamate] | < 0.005 nM | < 0.005 nM | 1.8 ± 0.5 nM | 1.2 ± 0.4 nM | 9.93 nM | 9.03 ± 4.21 nM | 0.09 ± 0.01 nM | – | –
6 | CCOP(=O)(COc1ccc(C[C@H](NC(=O)O[C@H]2CO[C@H]3OCC[C@H]32)[C@H](O)CN(CC(C)C)S(=O)(=O)c2ccc3ncsc3c2)cc1)OCC [Example 10, (3R,3aS,6aR)-hexahydrofuro[2,3-b]furan-3-yl ((2S,3R)-1-(4-((diethoxyphosphoryl)methoxy)phenyl)-3-hydroxy-4-(N-isobutylbenzo [d]thiazole-6-sulfonamido)butan-2-yl)carbamate] | < 0.005 nM | < 0.005 nM | 0.93 ± 0.2 nM | 1.9 ± 0.3 nM | 10.4 nM | 15 ± 3.5 nM | 0.23 ± 0.02 nM | – | –
7 | CCOP(=O)(COc1ccc(C[C@H](NC(=O)O[C@H]2CO[C@H]3OCC[C@H]32)[C@H](O)CN(C[C@@H](C)CC)S(=O)(=O)c2ccc(N)cc2)cc1)OCC [Example 5, (3R,3aS,6aR)-hexahydrofuro[2,3-b]furan-3-yl ((2S,3R)-4-((4-amino-N—((S)-2-methylbutyl)phenyl)sulfonamido)-1-(4-((diethoxyphosphoryl)methoxy)phenyl)-3-hydroxybutan-2-yl)carbamate] | < 0.005 nM | < 0.005 nM | 13.3 ± 3.5 nM | 146 ± 10 nM | 22.9 nM | 259 ± 17 nM | 2.31 ± 0.09 nM | – | –
8 | CCOP(=O)(COc1ccc(C[C@H](NC(=O)O[C@H]2CO[C@H]3OCC[C@H]32)[C@H](O)CN(CC(CC)CC)S(=O)(=O)c2ccc(OC)cc2)cc1)OCC [Example 8, (3R,3aS,6aR)-hexahydrofuro[2,3-b]furan-3-yl ((2S,3R)-1-(4-((diethoxyphosphoryl)methoxy)phenyl)-4-((N-(2-ethylbutyl)-4-methoxyphenyl)sulfonamido)-3-hydroxybutan-2-yl)carbamate] | < 0.005 nM | < 0.005 nM | 0.77 ± 0.06 nM | 1.26 ± 0.08 nM | 5.15 nM | 2.2 ± 0.2 nM | 0.16 ± 0.04 nM | – | –
9 | CC(C)(C)NC(=O)[C@@H]1CN(Cc2cccnc2)CCN1C[C@@H](O)C[C@@H](Cc1ccccc1)C(=O)N[C@H]1c2ccccc2C[C@H]1O [IDV, indinavir, reference compound] | – | – | – | – | – | – | – | 62700 nM | 60000 nM
10 | CCOP(=O)(COc1ccc(C[C@H](NC(=O)O[C@H]2CO[C@H]3OCC[C@H]32)[C@H](O)CN(CC(CC)CC)S(=O)(=O)c2ccc(CO)cc2)cc1)OCC [Example 13, (3R,3aS,6aR)-hexahydrofuro[2,3-b]furan-3-yl ((2S,3R)-1-(4-((diethoxyphosphoryl)methoxy)phenyl)-4-((N-(2-ethylbutyl)-4-(hydroxymethyl)phenyl)sulfonamido)-3-hydroxybutan-2-yl)carbamate] | < 0.005 nM | < 0.005 nM | 2.2 ± 0.4 nM | 32.1 ± 4.3 nM | 17 nM | 81.2 ± 10.8 nM | 0.6 ± 0.1 nM | – | –
11 | CCOP(=O)(COc1ccc(C[C@H](NC(=O)O[C@H]2CO[C@H]3OCC[C@H]32)[C@H](O)CN(CC(C)C)S(=O)(=O)c2ccc3c(c2)OCO3)cc1)OCC [Example 9, (3R,3aS,6aR)-hexahydrofuro[2,3-b]furan-3-yl ((2S,3R)-1-(4-((diethoxyphosphoryl)methoxy)phenyl)-3-hydroxy-4-(N-isobutylbenzo[d][1,3]dioxole-5-sulfonamido)butan-2-yl)carbamate] | < 0.005 nM | < 0.005 nM | 2.2 ± 0.5 nM | 4.5 ± 0.8 nM | 5.67 nM | 63.5 ± 15.2 nM | 0.36 ± 0.05 nM | – | –
